The source of these data is patent US20220282217A1, “COMPOSITIONS AND METHODS FOR PREPARING T CELL COMPOSITIONS AND USES THEREOF” (priority 2019, published 2022).

The target in the assay is HLA-A02.01 (Homo sapiens, UniProt P04439, D140Y/D185E/D98H/E176V/E277Q/G131W/G231S/I119V/I121R/I166T/I218V/L300P/L318F/N151K/N90K/P208A/P217A/Q86G/Q94H/R138H/R169H/T345S). Put plainly: Class I MHC peptide binding affinity (displacement of radiolabeled reference peptide). How it is done: In brief, MHCI complexes were prepared and bound to radiolabeled reference peptides. Peptides were incubated at varying concentrations with these complexes for 2 days, and the amount of remaining radiolabeled peptide bound to […] was measured using size exclusion gel-filtration.

[1] abbreviates: allele A02.01, read-out: Observed Affinity (IC50, (nM)).
Setting [2] is: Observed Affinity (IC50, (nM)), allele A02.01.

Read-outs that look alike come from different tables or passages of the source. Where a SMILES comes first, the peptide text is derived from it.

In the case of `CC(C)C[C@H](NC(=O)[C@H](C)N)C(=O)N[C@@H](CC(N)=O)C(=O)N[C@@H](CO)C(=O)N[C@@H](CCC(=O)O)C(=O)N[C@@H](C)C(=O)N[C@@H](CC(C)C)C(=O)N[C@@H](CO)C(=O)N[C@H](C(=O)N[C@H](C(=O)O)C(C)C)C(C)C`, the IC50 under setting [1] is 15 nM.

For `CC[C@H](C)[C@H](NC(=O)[C@H](CC(C)C)NC(=O)[C@@H](N)CS)C(=O)N[C@H](C(=O)N[C@@H](CO)C(=O)N[C@@H](CCCNC(=N)N)C(=O)N[C@H](C(=O)N[C@@H](CC(C)C)C(=O)N[C@@H](CC(C)C)C(=O)N[C@@H](CC(C)C)C(=O)O)[C@@H](C)O)C(C)C`, under setting [1], the IC50 was 2010 nM.

Take `CC[C@H](C)[C@H](NC(=O)[C@@H]1CCCN1C(=O)[C@H](CCCNC(=N)N)NC(=O)[C@H](CCC(N)=O)NC(=O)[C@H](CC(N)=O)NC(=O)[C@H](CCSC)NC(=O)CNC(=O)CNC(=O)[C@H](CCSC)NC(=O)[C@@H](N)CS)C(=O)O`: the IC50 under setting [1] amounted to 3670 nM.

Regarding `CC[C@H](C)[C@H](NC(=O)[C@H](CC(C)C)NC(=O)[C@@H]1CCCN1C(=O)[C@H](Cc1ccccc1)NC(=O)[C@H](CC(C)C)NC(=O)[C@@H](N)CCC(=O)O)C(=O)N[C@@H](Cc1ccccc1)C(=O)N1CCC[C@H]1C(=O)N[C@@H](C)C(=O)O`, the IC50 under setting [1] came to 13 nM.

For the compound `CSCC[C@H](NC(=O)[C@H](CCCCN)NC(=O)CNC(=O)[C@H](CC(N)=O)NC(=O)[C@H](CCC(N)=O)NC(=O)[C@@H](N)Cc1ccccc1)C(=O)N[C@@H](C)C(=O)N[C@@H](CC(C)C)C(=O)N[C@@H](CO)C(=O)N[C@@H](C)C(=O)O`, the IC50 under setting [1] worked out at 6160 nM.

In the case of `CC(C)C[C@H](NC(=O)CNC(=O)[C@H](Cc1c[nH]c2ccccc12)NC(=O)[C@H](CC(=O)O)NC(=O)[C@H](CCCCN)NC(=O)CNC(=O)[C@H](CCC(N)=O)NC(=O)[C@@H](NC(=O)[C@@H](N)Cc1ccccc1)C(C)C)C(=O)O`, the IC50 under setting [1] is 34 nM.

`CC[C@H](C)[C@H](N)C(=O)N[C@H](C(=O)N[C@H](C(=O)N[C@@H](CCC(=O)O)C(=O)N[C@@H](Cc1ccccc1)C(=O)N[C@@H](CCSC)C(=O)N[C@H](C(=O)N[C@@H](Cc1ccc(O)cc1)C(=O)NCC(=O)N[C@@H](CC(N)=O)C(=O)O)[C@@H](C)O)[C@@H](C)CC)[C@@H](C)CC` gave an IC50 under setting [2] of 1550 nM.

With `CC[C@H](C)[C@H](N)C(=O)N[C@@H](CCC(N)=O)C(=O)N[C@@H](CC(C)C)C(=O)N[C@@H](CCC(N)=O)C(=O)N[C@@H](CC(=O)O)C(=O)N[C@@H](CCCCN)C(=O)N[C@@H](Cc1ccccc1)C(=O)N[C@@H](CCC(=O)O)C(=O)N[C@@H](Cc1c[nH]cn1)C(=O)N[C@@H](CC(C)C)C(=O)O`, the IC50 under setting [1] came to 4270 nM.

In the case of `CC[C@H](C)[C@H](NC(=O)[C@@H](N)CC(C)C)C(=O)N[C@H](C(=O)N[C@@H](CO)C(=O)N[C@@H](CCCNC(=N)N)C(=O)N[C@H](C(=O)N[C@@H](CC(C)C)C(=O)N[C@@H](CC(C)C)C(=O)N[C@@H](CC(C)C)C(=O)O)[C@@H](C)O)C(C)C`, under setting [1], the IC50 came out at 173 nM.

Under setting [2], `CC[C@H](C)[C@H](NC(=O)[C@@H]1CCCN1C(=O)[C@H](CC(C)C)NC(=O)[C@@H](N)CC(C)C)C(=O)N1CCC[C@H]1C(=O)N1CCC[C@H]1C(=O)N[C@@H](CC(C)C)C(=O)N[C@@H](CO)C(=O)N1CCC[C@H]1C(=O)N[C@@H](CO)C(=O)O` registered an IC50 of 449 nM.

Take `CC[C@H](C)[C@H](NC(=O)[C@H](Cc1ccccc1)NC(=O)[C@H](CCCNC(=N)N)NC(=O)[C@@H]1CCCN1C(=O)[C@H](CC(C)C)NC(=O)[C@H](CO)NC(=O)[C@H](CCC(N)=O)NC(=O)[C@@H](N)CC(C)C)C(=O)N[C@@H](CC(C)C)C(=O)N[C@@H](CCSC)C(=O)O`: under setting [1], the IC50 was determined as 413 nM.

As for `CC(C)C[C@H](NC(=O)[C@H](CO)NC(=O)[C@H](CC(N)=O)NC(=O)[C@H](CS)NC(=O)[C@H](CCC(=O)O)NC(=O)[C@H](Cc1c[nH]cn1)NC(=O)[C@H](CC(C)C)NC(=O)[C@@H](NC(=O)[C@H](CCC(N)=O)NC(=O)[C@@H](N)CC(C)C)C(C)C)C(=O)O`, under setting [1], the IC50 came out at 4720 nM.

Take `CSCC[C@H](N)C(=O)N[C@@H](C)C(=O)N[C@@H](CC(C)C)C(=O)N[C@@H](CC(N)=O)C(=O)N[C@@H](CO)C(=O)N[C@@H](CCC(=O)O)C(=O)N[C@@H](C)C(=O)N[C@@H](CC(C)C)C(=O)N[C@@H](CO)C(=O)N[C@H](C(=O)O)C(C)C`: under setting [1], the IC50 stood at 129 nM.

`CSCC[C@H](N)C(=O)N[C@@H](C)C(=O)N[C@@H](CC(N)=O)C(=O)NCC(=O)N[C@@H](CO)C(=O)N[C@@H](CC(C)C)C(=O)N[C@@H](CC(C)C)C(=O)N[C@@H](CC(N)=O)C(=O)N[C@@H](Cc1ccc(O)cc1)C(=O)N[C@@H](CC(C)C)C(=O)O`: the IC50 runs as follows: (BTK C481S peptide, HLA Allele A02.01, read-out: Affinity) 1010 nM; under setting [1], 1080 nM.

In the case of `CSCC[C@H](NC(=O)[C@H](CCCCN)NC(=O)[C@H](CCCNC(=N)N)NC(=O)[C@H](CC(C)C)NC(=O)[C@H](CC(N)=O)NC(=O)[C@H](CC(C)C)NC(=O)[C@H](CCCNC(=N)N)NC(=O)[C@H](CC(C)C)NC(=O)[C@H](CC(C)C)NC(=O)[C@@H](N)CCSC)C(=O)O`, the IC50 under setting [1] turned out to be 2510 nM.

As to `CC[C@H](C)[C@H](NC(=O)[C@@H]1CCCN1C(=O)[C@H](CCCNC(=N)N)NC(=O)[C@H](CCCNC(=N)N)NC(=O)[C@H](CC(N)=O)NC(=O)[C@H](CCSC)NC(=O)[C@@H](N)CO)C(=O)N[C@@H](CC(C)C)C(=O)N[C@H](C(=O)O)[C@@H](C)O`, the IC50 under setting [1] turned out to be 3840 nM.

In the case of `CC[C@H](C)[C@H](NC(=O)[C@H](CCC(N)=O)NC(=O)[C@@H](N)CO)C(=O)N[C@@H](CCSC)C(=O)N[C@@H](CO)C(=O)N[C@@H](CC(C)C)C(=O)N[C@@H](Cc1c[nH]c2ccccc12)C(=O)NCC(=O)N[C@@H](CC(C)C)C(=O)O`, the IC50 under setting [1] was 62 nM.

As for `CC[C@H](C)[C@H](NC(=O)[C@@H]1CCCN1C(=O)[C@H](CCCNC(=N)N)NC(=O)[C@H](Cc1c[nH]cn1)NC(=O)[C@@H]1CCCN1C(=O)[C@H](CS)NC(=O)[C@H](CCCNC(=N)N)NC(=O)[C@H](CCC(=O)O)NC(=O)[C@H](CC(C)C)NC(=O)[C@@H](N)C(C)C)C(=O)O`, the IC50 under setting [1] stood at 15300 nM.

As for `CC(C)C[C@H](NC(=O)[C@@H](N)C(C)C)C(=O)N[C@@H](CCC(N)=O)C(=O)N[C@@H](CCCNC(=N)N)C(=O)N[C@@H](Cc1ccccc1)C(=O)N[C@@H](CCCNC(=N)N)C(=O)N[C@@H](Cc1ccccc1)C(=O)N[C@H](C(=O)N[C@@H](Cc1c[nH]cn1)C(=O)N[C@H](C(=O)O)C(C)C)[C@@H](C)O`, the IC50 under setting [1] turned out to be 107 nM.

Take `CC[C@H](C)[C@H](NC(=O)[C@H](Cc1ccc(O)cc1)NC(=O)[C@H](CCC(=O)O)NC(=O)CNC(=O)[C@H](CO)NC(=O)[C@H](Cc1ccccc1)NC(=O)[C@H](C)N)C(=O)N1CCC[C@H]1C(=O)N[C@H](C(=O)N[C@H](C(=O)O)C(C)C)[C@@H](C)O` (H-AFSGEYIPTV-OH; N-terminus and C-terminus assumed): the IC50 under setting [1] amounted to 781 nM.

For the compound `CC[C@H](C)[C@H](NC(=O)[C@H](C)N)C(=O)N[C@@H](CCC(N)=O)C(=O)N1CCC[C@H]1C(=O)N[C@H](C(=O)N[C@@H](CC(C)C)C(=O)N[C@@H](Cc1c[nH]c2ccccc12)C(=O)N[C@H](C(=O)N[C@H](C(=O)O)[C@@H](C)O)[C@@H](C)O)C(C)C` (H-AIQPVLWTT-OH; N-terminus and C-terminus assumed), the IC50 under setting [1] stood at 8.1 nM.

Take `CSCC[C@H](NC(=O)[C@H](Cc1c[nH]cn1)NC(=O)[C@@H](NC(=O)[C@H](CC(C)C)NC(=O)[C@@H](NC(=O)[C@@H]1CCCN1C(=O)[C@H](C)NC(=O)[C@H](CC(C)C)NC(=O)[C@H](C)N)[C@@H](C)O)[C@@H](C)O)C(=O)O` (H-ALAPTLTHM-OH; N-terminus and C-terminus assumed): the IC50 under setting [1] amounted to 59 nM.

On to `CSCC[C@H](NC(=O)[C@H](Cc1c[nH]cn1)NC(=O)[C@@H](NC(=O)[C@H](CC(C)C)NC(=O)[C@@H](NC(=O)[C@@H]1CCCN1C(=O)[C@H](C)NC(=O)[C@H](CC(C)C)NC(=O)[C@H](C)N)[C@@H](C)O)[C@@H](C)O)C(=O)N[C@@H](CC(C)C)C(=O)O` (H-ALAPTLTHML-OH; N-terminus and C-terminus assumed), for which the IC50 under setting [1] was determined as 39 nM.

As to `CC(C)C[C@H](NC(=O)[C@H](C)N)C(=O)N[C@@H](CCC(=O)O)C(=O)N[C@@H](CCC(=O)O)C(=O)N[C@@H](CCCCN)C(=O)N[C@@H](CCCCN)C(=O)NCC(=O)N[C@@H](CC(N)=O)C(=O)N[C@@H](Cc1ccc(O)cc1)C(=O)N[C@H](C(=O)O)C(C)C` (H-ALEEKKGNYV-OH; N-terminus and C-terminus assumed), the IC50 under setting [1] was found to be 141 nM.

As for `CC(C)C[C@H](NC(=O)[C@H](C)N)C(=O)N[C@@H](Cc1ccccc1)C(=O)N[C@@H](Cc1ccccc1)C(=O)N[C@@H](Cc1ccccc1)C(=O)N[C@@H](Cc1ccccc1)C(=O)N[C@@H](Cc1ccccc1)C(=O)N[C@@H](CCC(=O)O)C(=O)N[C@H](C(=O)O)[C@@H](C)O` (H-ALFFFFFET-OH; N-terminus and C-terminus assumed), the IC50 under setting [1] is 471 nM.

On to `CSCC[C@H](NC(=O)[C@H](C)NC(=O)[C@H](CO)NC(=O)[C@H](CCSC)NC(=O)[C@H](CC(C)C)NC(=O)[C@H](C)N)C(=O)N[C@H](C(=O)N[C@H](C(=O)N[C@@H](CO)C(=O)O)[C@@H](C)O)[C@@H](C)O` (H-ALMSAMTTS-OH; N-terminus and C-terminus assumed), for which the IC50 under setting [1] is 139 nM.

As for `CC(C)C[C@H](NC(=O)[C@H](C)N)C(=O)N[C@@H](CC(N)=O)C(=O)N[C@@H](CO)C(=O)N[C@@H](CCC(=O)O)C(=O)N[C@@H](C)C(=O)N[C@@H](CC(C)C)C(=O)N[C@@H](CO)C(=O)N[C@H](C(=O)O)C(C)C` (H-ALNSEALSV-OH), the IC50 under setting [1] was 14 nM.

For the compound `CC(C)C[C@H](NC(=O)[C@H](C)N)C(=O)N[C@@H](CCC(N)=O)C(=O)N1CCC[C@H]1C(=O)N[C@@H](CC(C)C)C(=O)N[C@@H](CCC(N)=O)C(=O)N1CCC[C@H]1C(=O)N[C@@H](Cc1c[nH]cn1)C(=O)N[C@@H](C)C(=O)O` (H-ALQPLQPHA-OH; N-terminus and C-terminus assumed), the IC50 under setting [1] came to 604 nM.
